Where a name gives a salt, the structure may show the parent alone. Read-outs that look alike come from different tables or passages of the source.
What was measured:
[1] = test system: acetylated α-tubulin (AcTub) levels in QBI293 cells; design: method as in PMID 26980057, PMID 33411523; conditions: cited from earlier work; for Class (cellular phenotype): activity reported in previous studies
[2] = test system: total α-tubulin (α-Tub) levels in QBI293 cells; test: QBI293 cell assay: total α-tubulin ELISA; type: cell-based
Procedure: (§1) All test compounds were initially screened in the same cell-based (QBI293) assay of MT stabilization used in our previous SAR studies[11],[12] so as to allow direct comparison with literature data. Changes in levels of acetylated α-tubulin (AcTub) and total α-tubulin (α-Tub), relative to vehicle-treated negative control cells, were determined after 4 h of incubation with test compounds at 1 and 10 μM. To account for possible day-to-day differences in the responsiveness of cells to MT-stabilizing treatment, compound-dependent changes in AcTub levels relative to DMSO-treated cells were also normalized to the corresponding changes caused by 100 nM of 5 that was used as a positive control. In addition, docking studies, binding free energy calculations, and in selected cases, molecular dynamic simulations were conducted using an X-ray structure of the vinca and seventh sites (PDB: 5NJH,[10]7CLD[13]). […] For selected compounds, additional studies included testing in the QBI293 cell AcTub assay at additional compound concentrations, and/or evaluation of test compounds for their ability to prevent MT collapse in primary neuron cultures treated with the phosphatase inhibitor, okadaic […] (OA). Finally, cytotoxicity studies in QBI293 and HeLa cells were also conducted for representative examples (Supporting Information).
(§2) Compound-induced changes in acetylated-tubulin and α-tubulin in QBI293 cells or primary mouse or rat neurons were as previously described.[11],[12] […] The plated cells were incubated overnight, after which the medium was aspirated and fresh medium containing vehicle (0.25–0.3% DMSO) or test compound was added. Test compounds were prepared as 4–20 mM stock solutions in 100% DMSO, and these were diluted in culture medium prior to addition to the QBI293 cells. After 4 h incubation, whole-cell extracts were prepared from the QBI293 cells as described[11] and the supernatant fraction from each sample was assessed for protein content by bicinchoninic acid (BCA) assay. The amount of acetyl-tubulin (AcTub) and α-tubulin (αTub) within the cell extract samples was quantified using specific enzyme-linked immunosorbent assays (ELISA), as previously described.[11] Acetyl-tubulin levels were determined in a similar manner in rat or mouse cortical neuron cultures in which embryonic dissociated cortical neurons were plated at 3 × 10^5 cells/well in poly-D-lysine-coated 12-well plates, essentially as previously described.[11] […] Culture homogenates were prepared for the determination of AcTub levels by ELISA as previously described.[11]

[3] = test system: acetylated α-tubulin (AcTub) levels in QBI293 cells; test: QBI293 cell assay of MT stabilization: acetylated α-tubulin ELISA; type: cell-based
Procedure: as §1, §2

[4] = test system: total α-tubulin (α-Tub) levels in QBI293 cells; design: method as in PMID 26980057, PMID 33411523; conditions: 4 h incubation, reported in previous studies, cited from earlier work
[5] = 4 h incubation, reported in previous studies
[6] = 4 h, 1 uM compound, read-out: AlfaTub (1uM)
[7] = 4 h, 10 uM compound, read-out: AlfaTub (10 uM)
[8] = 4 h, 1 uM compound, read-out: AcTub (1uM)
[9] = 4 h, 10 uM compound, read-out: AcTub (10 uM)
[10] = 4 h incubation, 10 μM, reported in previous studies
[11] = 4 h incubation, 1 μM, read-out: α-Tub 1 μM, fold-change compared to vehicle (DMSO)-treated cells
[12] = 4 h incubation, 10 μM, read-out: α-Tub 10 μM, fold-change compared to vehicle (DMSO)-treated cells
[13] = 4 h incubation, 1 μM, read-out: AcTub 1 μM, fold-change compared to vehicle (DMSO)-treated cells
[14] = 4 h incubation, 10 μM, read-out: AcTub 10 μM, fold-change compared to vehicle (DMSO)-treated cells

C[C@@H](Nc1c(-c2c(F)cc(F)cc2F)c(Cl)nc2ncnn12)C1(C)N=N1 [Compound 63]
AcTub 1 μM, fold-change compared to vehicle (DMSO)-treated cells [1, 5]: 1.42 ± 0.08 fold-change
Class (cellular phenotype) [1]: I
fold induction at 1 µM [2, 6]: 0.92
fold induction at 10 µM [2, 7]: 0.89
AcTub (1 uM - normalized) ([3]; 1 uM compound): 0.11
AcTub (10 uM - normalized) ([3]; 10 uM compound): 0.36
fold induction at 1 µM [3, 8]: 1.42
fold induction at 10 µM [3, 9]: 4.28

C[C@@H](Nc1c(-c2c(F)cc(OCCCN(C)C)cc2F)c(Cl)nc2ncnn12)C1(C)N=N1 [Compound 66]
fold induction at 1 µM [2, 6]: 0.73
fold induction at 10 µM [2, 7]: 1.01
AcTub (1 uM - normalized) ([3]; 1 uM compound): 1.68
AcTub (10 uM - normalized) ([3]; 10 uM compound): 0.07
fold induction at 1 µM [3, 8]: 21.7
fold induction at 10 µM [3, 9]: 0.93
α-Tub 10 μM, fold-change compared to vehicle (DMSO)-treated cells [4]: 1.01 ± 0.05 fold-change

CC(C)[C@H](Nc1c(-c2c(F)cc(F)cc2F)c(Cl)nc2ncnn12)C(F)(F)F [Compound 9]
Class (cellular phenotype) [1]: I
fold induction at 1 µM [2, 6]: 1.04
fold induction at 10 µM [2, 7]: 1.06
AcTub (1 uM - normalized) ([3]; 1 uM compound): 0.17
AcTub (10 uM - normalized) ([3]; 10 uM compound): 0.38
fold induction at 1 µM [3, 8]: 3.12
fold induction at 10 µM [3, 9]: 6.78
α-Tub 1 μM, fold-change compared to vehicle (DMSO)-treated cells [4]: 1.04 ± 0.01 fold-change

CC(C)[C@H](C)Nc1c(-c2c(F)cc(F)cc2F)c(Cl)nc2ncnn12 [Compound 7]
Class (cellular phenotype) [1]: I

C[C@@H](Nc1c(-c2c(F)cc(F)cc2F)c(Cl)nc2ncnn12)C(C)(C)C [Compound 10]
Class (cellular phenotype) [1]: I

C[C@H](Nc1c(-c2c(F)cc(F)cc2F)c(Cl)nc2ncnn12)C1(C)N=N1 [Compound 62]
AcTub 10 μM, fold-change compared to vehicle (DMSO)-treated cells [1, 10]: 1.85 ± 0.08 fold-change
Class (cellular phenotype) [1]: I
fold induction at 1 µM [2, 6]: 1.07
fold induction at 10 µM [2, 7]: 0.94
AcTub (1 uM - normalized) ([3]; 1 uM compound): 0.13
AcTub (10 uM - normalized) ([3]; 10 uM compound): 0.28
fold induction at 1 µM [3, 8]: 0.84
fold induction at 10 µM [3, 9]: 1.85
α-Tub 10 μM, fold-change compared to vehicle (DMSO)-treated cells [4]: 0.94 ± 0.02 fold-change

CC(C)[C@@H](Nc1c(-c2c(F)cc(F)cc2F)c(Cl)nc2ncnn12)C(F)(F)F [Compound 8]
AcTub 1 μM, fold-change compared to vehicle (DMSO)-treated cells [1, 5]: 2.79 ± 0.04 fold-change
AcTub 10 μM, fold-change compared to vehicle (DMSO)-treated cells [1, 10]: 13.0 ± 0.54 fold-change
fold induction at 1 µM [2, 6]: 1.1
fold induction at 10 µM [2, 7]: 0.61
AcTub (1 uM - normalized) ([3]; 1 uM compound): 0.16
AcTub (10 uM - normalized) ([3]; 10 uM compound): 0.73
fold induction at 1 µM [3, 8]: 2.79
fold induction at 10 µM [3, 9]: 13
α-Tub 1 μM, fold-change compared to vehicle (DMSO)-treated cells [4]: 1.10 ± 0.09 fold-change

CC(C)[C@@H](C)Nc1c(-c2c(F)cc(F)cc2F)c(Cl)nc2ncnn12 [Compound 1]
Class (cellular phenotype) [1]: I

CN(C)CCCOc1cc(F)c(-c2c(Cl)nc3ncnn3c2NCC2(C)N=N2)c(F)c1 [Compound 65]
AcTub 1 μM, fold-change compared to positive control compound 5 (100 nM) (in parentheses) [1, 5]: 0.81 fold-change
AcTub 1 μM, fold-change compared to vehicle (DMSO)-treated cells [1, 5]: 10.5 ± 0.4 fold-change
AcTub 10 μM, fold-change compared to positive control compound 5 (100 nM) (in parentheses) [1, 10]: 0.02 fold-change
fold induction at 1 µM [2, 6]: 0.36
fold induction at 10 µM [2, 7]: 0.19
AcTub (1 uM - normalized) ([3]; 1 uM compound): 0.81
AcTub (10 uM - normalized) ([3]; 10 uM compound): 0.02
fold induction at 1 µM [3, 8]: 10.5
fold induction at 10 µM [3, 9]: 0.29
α-Tub 10 μM, fold-change compared to vehicle (DMSO)-treated cells [4]: 0.19 ± 0.02 fold-change

C[C@H](Nc1c(-c2c(F)cc(OCCCN(C)C)cc2F)c(Cl)nc2ncnn12)C1(C)N=N1 [Compound 67]
AcTub 10 μM, fold-change compared to vehicle (DMSO)-treated cells [1, 10]: 0.28 ± 0.03 fold-change
fold induction at 1 µM [2, 6]: 0.69
fold induction at 10 µM [2, 7]: 0.78
AcTub (1 uM - normalized) ([3]; 1 uM compound): 1.01
AcTub (10 uM - normalized) ([3]; 10 uM compound): 0.04
fold induction at 1 µM [3, 8]: 6.7
fold induction at 10 µM [3, 9]: 0.28
α-Tub 1 μM, fold-change compared to vehicle (DMSO)-treated cells [4]: 0.69 ± 0.05 fold-change

CC(C)(C)CNc1c(-c2c(F)cc(F)cc2F)c(Cl)nc2ncnn12 [Compound 11]
AcTub 1 μM, fold-change compared to positive control compound 5 (100 nM) (in parentheses) [1, 5]: 0.30 fold-change
AcTub 1 μM, fold-change compared to vehicle (DMSO)-treated cells [1, 5]: 2.04 ± 0.11 fold-change
AcTub 10 μM, fold-change compared to vehicle (DMSO)-treated cells [1, 10]: 4.79 ± 0.74 fold-change
Class (cellular phenotype) [1]: I
AlfaTub (1uM) ([2]; 1 uM compound): 1.03
AlfaTub (10 uM) ([2]; 10 uM compound): 1.06
AcTub (1uM) ([3]; 1 uM compound): 2.04
AcTub (1 uM - normalized) ([3]; 1 uM compound): 0.30
AcTub (10 uM) ([3]; 10 uM compound): 4.79
AcTub (10 uM - normalized) ([3]; 10 uM compound): 0.71
α-Tub 1 μM, fold-change compared to vehicle (DMSO)-treated cells [4]: 1.03 ± 0.07 fold-change

CC1(CNc2c(-c3c(F)cc(F)cc3F)c(Cl)nc3ncnn23)N=N1 [Compound 61]
AcTub 1 μM, fold-change compared to positive control compound 5 (100 nM) (in parentheses) [1, 5]: 0.12 fold-change
Class (cellular phenotype) [1]: I
fold induction at 1 µM [2, 6]: 1.08
fold induction at 10 µM [2, 7]: 1.03
AcTub (1 uM - normalized) ([3]; 1 uM compound): 0.12
AcTub (10 uM - normalized) ([3]; 10 uM compound): 0.27
fold induction at 1 µM [3, 8]: 1.56
fold induction at 10 µM [3, 9]: 3.42
α-Tub 1 μM, fold-change compared to vehicle (DMSO)-treated cells [4]: 1.08 ± 0.04 fold-change
α-Tub 10 μM, fold-change compared to vehicle (DMSO)-treated cells [4]: 1.03 ± 0.04 fold-change

CC1(CNc2c(-c3c(F)cc(F)cc3F)c(Cl)nc3ncnn23)CC1 [Compound 13, 5-Chloro-N-((1-methylcyclopropyl)methyl)-6-(2,4,6-trifluorophenyl)-[1,2,4]triazolo[1,5-a]pyrimidin-7-amine]
fold induction at 1 µM [2, 6]: 1.04
fold induction at 10 µM [2, 7]: 0.97
fold induction at 1 µM [2, 11]: 1.04 ± 0.07
fold induction at 10 µM [2, 12]: 0.97 ± 0.02
AcTub (1 uM - normalized) ([3]; 1 uM compound): 0.26
AcTub (10 uM - normalized) ([3]; 10 uM compound): 0.49
fold induction at 1 µM [3, 8]: 2.68
fold induction at 10 µM [3, 9]: 5.06
AcTub 1 μM, fold-change compared to positive control compound 5 (100 nM) (in parentheses) ([3]; 4 h incubation, 1 μM): 0.26 fold-change
fold induction at 1 µM [3, 13]: 2.68 ± 0.24
AcTub 10 μM, fold-change compared to positive control compound 5 (100 nM) (in parentheses) ([3]; 4 h incubation, 10 μM): 0.49 fold-change
fold induction at 10 µM [3, 14]: 5.06 ± 0.23

C[C@H](Nc1c(-c2c(F)cc(F)cc2F)c(Cl)nc2ncnn12)C(C)(C)C [Compound 12]
Class (cellular phenotype) [1]: I

CNCC#Cc1cc(F)c(-c2c(Cl)nc3ncnn3c2N[C@H](C)C(C)(C)C)c(F)c1 [Compound 59, (R)-5-Chloro-6-(2,6-difluoro-4-(3-(methylamino)prop-1-yn-1-yl)phenyl)-N-(3,3-dimethylbutan-2-yl)-[1,2,4]triazolo[1,5-a]pyrimidin-7-amine Hydrochloride]
fold induction at 1 µM [2, 6]: 0.93
fold induction at 10 µM [2, 7]: 1
fold induction at 1 µM [2, 11]: 0.93 ± 0.02
fold induction at 10 µM [2, 12]: 1 ± 0.03
AcTub (1 uM - normalized) ([3]; 1 uM compound): 0.81
AcTub (10 uM - normalized) ([3]; 10 uM compound): 1.16
fold induction at 1 µM [3, 8]: 6.03
fold induction at 10 µM [3, 9]: 8.67
AcTub 1 μM, fold-change compared to positive control compound 5 (100 nM) (in parentheses) ([3]; 4 h incubation, 1 μM): 0.81 fold-change
fold induction at 1 µM [3, 13]: 6.03 ± 0.64
AcTub 10 μM, fold-change compared to positive control compound 5 (100 nM) (in parentheses) ([3]; 4 h incubation, 10 μM): 1.16 fold-change
fold induction at 10 µM [3, 14]: 8.67 ± 0.16
